What was measured:
[1] = target: T1, aldosterone synthase (CYP11B2) (Homo sapiens, UniProt P19099); assay: in vitro aldosterone synthase inhibition, aldosterone production in Ang II-stimulated NCI-H295R cells; type: cell-based; settings: read-out: AS IC50
T1 construct: host or cells: NCI-H295R
T1 sequence (P19099 25-503): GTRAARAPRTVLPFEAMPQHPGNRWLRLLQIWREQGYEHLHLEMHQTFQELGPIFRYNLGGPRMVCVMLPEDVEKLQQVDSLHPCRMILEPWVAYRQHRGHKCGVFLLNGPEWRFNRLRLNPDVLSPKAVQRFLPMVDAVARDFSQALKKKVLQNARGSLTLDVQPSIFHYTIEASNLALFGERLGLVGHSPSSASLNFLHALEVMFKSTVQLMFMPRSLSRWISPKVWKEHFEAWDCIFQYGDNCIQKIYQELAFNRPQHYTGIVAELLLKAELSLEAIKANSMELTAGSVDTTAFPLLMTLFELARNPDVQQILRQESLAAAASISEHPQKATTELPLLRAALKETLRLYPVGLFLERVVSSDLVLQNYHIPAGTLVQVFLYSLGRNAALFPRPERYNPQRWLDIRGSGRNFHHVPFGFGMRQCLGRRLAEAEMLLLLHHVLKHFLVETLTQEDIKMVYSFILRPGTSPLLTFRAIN
Text: In particular, the aldosterone synthase inhibitory activities in vitro can be determined by the following assay.
Human adrenocortical carcinoma NCI-H295R cell line is obtained from American Type Culture Collection (Manassas, Va.). Insulin/transferrin/selenium (ITS)-A supplement (100×), DMEM/F-12, antibiotic/antimycotic (100×), and fetal calf serum (FCS) are purchased from Gibco (Grand Island, N.Y.). Anti-mouse PVT scintillation proximity assay (SPA) beads and NBS 96-well plates are obtained from Amersham (Piscataway, N.J.) and Corning (Acton, Mass.), respectively. Solid black 96-well flat bottom plates were purchased from Costar (Corning, N.Y.). Aldosterone and angiotensin (Ang II) are purchased from Sigma (St. Louis, Mo.). D-[1,2,6,7-^3H(N)]aldosterone was acquired from PerkinElmer (Boston, Mass.). Nu-serum was a product of BD Biosciences (Franklin Lakes, N.J.).
For in vitro measurement of aldosterone activity, human adrenocortical carcinoma NCI-H295R cells are seeded in NBS 96-well plates at a density of 25,000 cells/well in 100 μl of a growth medium containing DMEM/F12 supplemented with 10% FCS, 2.5% Nu-serum, 1 μg ITS/ml, and 1× antibiotic/antimycotic. The medium is changed after culturing for 3 days at 37° C. under an atmosphere of 5% CO2/95% air. On the following day, cells are rinsed with 100 μl of DMEM/F12 and incubated with 100 μl of treatment medium containing 1 μM Ang II and a compound at different concentrations in quadruplicate wells at 37° C. for 24 hr. At the end of incubation, 50 μl of medium is withdrawn from each well for measurement of aldosterone production by an RIA using mouse anti-aldosterone monoclonal antibodies.
Measurement of aldosterone activity can also be performed using a 96-well plate format. Each test sample is incubated with 0.02 μCi of D-[1,2,6,7-^3H(N)]aldosterone and 0.3 μg of anti-aldosterone antibody in phosphate-buffered saline (PBS) containing 0.1% Triton X-100, 0.1% bovine serum albumin, and 12% glycerol in a total volume of 200 μl at room temperature for 1 hr. Anti-mouse PVT SPA beads (50 μl) are then added to each well and incubated overnight at room temperature prior to counting in a Microbeta plate counter. The amount of aldosterone in each sample is calculated by comparing with a standard curve generated using known quantities of the hormone.

[2] = target: T2, CYP11B1 (Homo sapiens, UniProt P15538); assay: in vitro CYP11B1 inhibition, steroid release from NCI-H295R cells; type: cell-based; settings: for inhibition at 0.1 µM: NCI-H295R, read-out: 11B1 % I @ 100 nM
T2 construct: Thus, the NCI-H295R cells have Cyp11 B1 (steroid 11 p-hydroxylase); host or cells: NCI-H295R
T2 sequence (P15538 25-503): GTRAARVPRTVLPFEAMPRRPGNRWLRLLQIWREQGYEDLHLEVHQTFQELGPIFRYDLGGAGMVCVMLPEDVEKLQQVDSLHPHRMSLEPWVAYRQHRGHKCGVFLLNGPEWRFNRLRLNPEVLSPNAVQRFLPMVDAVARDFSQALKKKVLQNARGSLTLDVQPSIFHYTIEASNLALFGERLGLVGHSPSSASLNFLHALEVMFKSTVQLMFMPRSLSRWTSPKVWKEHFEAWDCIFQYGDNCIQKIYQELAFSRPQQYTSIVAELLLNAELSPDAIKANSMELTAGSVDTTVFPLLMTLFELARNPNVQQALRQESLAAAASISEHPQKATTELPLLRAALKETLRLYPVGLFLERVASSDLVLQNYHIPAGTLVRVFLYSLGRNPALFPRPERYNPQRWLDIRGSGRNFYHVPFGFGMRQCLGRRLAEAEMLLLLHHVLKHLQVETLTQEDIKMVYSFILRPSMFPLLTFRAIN
Text: The in vitro inhibitory activities for CYP11B1 can be determined by the following assay.
The cell line NCI-H295R was originally isolated from an adrenocortical carcinoma and has been characterized in the literature through the stimulable secretion of steroid hormones and the presence of the enzymes essential for steroidogenesis. Thus, the NCI-H295R cells have Cyp11 B1 (steroid 11 p-hydroxylase). The cells show the physiological property of zonally undifferentiated human foetal adrenocortical cells which, however, have the capacity to produce the steroid hormones which are formed in the three, phenotypically distinguishable zones in the adult adrenal cortex.
The NCI-H295R cells (American Type Culture Collection, ATCC, Rockville, Md., USA) are grown in Dulbeoco's Modified Eagle'Ham F-12 Medium (DME/F12), which has been I supplemented with Ulroser SF Serum (Soprachem, Cergy-Saint-Christophe, France), insulin, transferrin, selenite (I-T-S, Becton Dickinson Biosciences, Franklin lakes, NJ, USA) and antibiotics in 75 cm^2 cell culture vessels at 37° C. and in a 95% air-5% carbon dioxide atmosphere. The cells are subsequently transferred for colony formation into a 24-well incubation vessel. They are cultivated there in DME/F12 medium, which is now supplemented with 0.1% bovine serum instead of Ultroser SF for 24 hours. The experiment is initiated by cultivating the cells in DME/F12 medium which is supplemented with 0.1% bovine serum albumin and test compound, in the presence or absence of cell stimulants, for 72 hours. The test substance is added in a concentration range from 0.2 nanomolar to […]. Cell stimulants which can be used are angiotensin 11 ([…] or 100 nanomolar), potassium ions (16 millimolar), forskolin (10 micromolar) or a combination of two stimulants.
The excretion of aldosterone, cortisol, corticosterone and estradiol/estrone into the culture medium can be detected and quantified by commercially available, specific monoclonal antibodies in radioimmunoassays in accordance with the manufacturer's instructions.
Inhibition of the release of certain steroids can be used as a measure of the respective enzyme inhibition by the added test compounds. The dose-dependent inhibition of enzymic activity by a compound is calculated by means of an inhibition plot which is characterized by an IC50.
The IC50 values for active test compounds are ascertained by a […] in order to construct inhibition plots without data weighting. The inhibition plot is calculated by fting a 4-parameter logistic function to the raw data points using the least squares method. The equation of the 4-parameter logistic function is calculated as follows: Y=(d−a)/((1+(x/c)b))+a I where: a=minimum data level b=gradient I c=ICED, d=maximum data level x=inhibitor concentration.

Row | Compound | IC50 [1] | inhibition at 0.1 µM [2] | 11B1 % I @ 100 nM [2]
1 | CC(C)OC(=O)c1cncn1C1CCCc2ccc(C#N)cc21 (stereo not drawn) [Compound 6, 3-(7-Cyano-1,2,3,4-tetrahydro-naphthalen-1-yl)-3H-imidazole-4-carboxylic acid isopropyl ester] | 197 nM | – | –
2 | CC(C)OC(=O)c1cncn1C1CCCCc2ccccc21 (stereo not drawn) [Compound 26, 3-(6,7,8,9-Tetrahydro-5H-benzocyclohepten-5-yl)-3H-imidazole-4-carboxylic acid isopropyl ester] | 5 nM | 99% | –
3 | CC1(C)Cc2ccccc2C1n1cncc1C(=O)NCCO (stereo not drawn) [Compound 20, 3-(2,2-Dimethyl-indan-1-yl)-3H-imidazole-4-carboxylic acid (2-hydroxy-ethyl)-amide] | 6 nM | – | –
4 | CCc1cncn1C1CC(C)(C)c2ccccc21 (stereo not drawn) [Compound 22, 1-(3,3-Dimethyl-indan-1-yl)-5-ethyl-1H-imidazole] | 194 nM | 100% | –
5 | c1ccc(COc2cncn2C2CSCc3ccccc32)cc1 (stereo not drawn) [Compound 18, 5-Benzyloxy-1-isothiochroman-4-yl-1H-imidazole] | 152 nM | – | –
6 | CC1(C)Cc2ccccc2C1n1cncc1C(=O)NCc1ccccc1 (stereo not drawn) [Compound 19, 3-(2,2-Dimethyl-indan-1-yl)-3H-imidazole-4-carboxylic acid benzylamide] | 17 nM | – | –
7 | CCc1cncn1C1CCC(C)(C)c2ccccc21 (single isomer, unassigned) [Compound 8, 1-(4,4-Dimethyl-1,2,3,4-tetrahydro-naphthalen-1-yl)-5-ethyl-1H-imidazole] | 35 nM | 100% | –
8 | COC(=O)c1cncn1C1c2ccccc2C(=O)CC1(C)C (single isomer, unassigned) [Compound 10, 3-(2,2-Dimethyl-4-oxo-1,2,3,4-tetrahydro-naphthalen-1-yl)-3H-imidazole-4-carboxylic acid methyl ester] | 27 nM | 99% | –
9 | CCc1cncn1C1CCC(C)(C)c2ccccc21 (single isomer, unassigned) [Compound 9, 1-(4,4-Dimethyl-1,2,3,4-tetrahydro-naphthalen-1-yl)-5-ethyl-1H-imidazole] | 6 nM | – | 100%
10 | CC(C)OC(=O)c1cncn1C1CCCc2ccc(N(C)S(C)(=O)=O)cc21 (stereo not drawn) [Compound 5, 3-(7-Methanesulfonyl-methyl-amino-1,2,3,4-tetrahydro-naphthalen-1-yl)-3H-imidazole-4-carboxylic acid isopropyl ester] | 352 nM | – | –
11 | CC(C)OC(=O)c1cncn1C1CCCc2ccccc21 (single isomer, unassigned) [Compound 1, 3-(1,2,3,4-Tetrahydro-naphthalen-1-yl)-3H-imidazole-4-carboxylic acid isopropyl ester] | 44 nM | 99% | –
12 | COC(=O)c1cncn1[C@H]1c2ccccc2[C@@H](O)CC1(C)C (relative stereo) [Compound 11, 3-(cis-4-Hydroxy-2,2-dimethyl-1,2,3,4-tetrahydro-naphthalen-r-1-yl)-3H-imidazole-4-carboxylic acid methyl ester] | 59 nM | – | 100%
13 | COC(=O)c1cncn1C1c2ccccc2C(NCc2ccccc2)CC1(C)C (stereo not drawn) [Compound 13, 3-(4-Benzylamino-2,2-dimethyl-1,2,3,4-tetrahydro-naphthalen-1yl)-3H-imidazole-4-carboxylic acid methyl ester] | 696 nM | 60% | –
14 | CC(C)OC(=O)c1cncn1C1CCOc2ccccc21 (single isomer, unassigned) [Compound 16, 3-Chroman-4-yl-3H-imidazole-4-carboxylic acid isopropyl ester] | 150 nM | – | –
15 | CC(=O)Nc1ccc2c(c1)CCCC2n1cncc1C(=O)OC(C)C (stereo not drawn) [Compound 4, 3-(6-Acetylamino-1,2,3,4-tetrahydro-naphthalen-1-yl)-3H-imidazole-4-carboxylic acid isopropyl ester] | 85 nM | – | –
16 | CCC(=O)Oc1cncn1C1CCCc2ccccc21 (stereo not drawn) [Compound 2, Propionic acid 3-(1,2,3,4-tetrahydro-naphthalen-1-yl)-3H-imidazol-4-yl ester] | 21 nM | – | –
17 | CC(C)OC(=O)c1cncn1C1CCCc2cc(C3CC3)ccc21 (stereo not drawn) [Compound 7, 3-(6-Cyclopropyl-1,2,3,4-tetrahydro-naphthalen-1-yl)-3H-imidazole-4-carboxylic acid isopropyl ester] | 268 nM | – | –
18 | COC(=O)c1cncn1C1c2ccccc2OC1(C)C (stereo not drawn) [Compound 25, 3-(2,2-Dimethyl-2,3-dihydro-benzofuran-3-yl)-3H-imidazole-4-carboxylic acid methyl ester] | 46 nM | 96% | –
19 | COC(=O)c1cncn1[C@H]1c2ccccc2[C@@H](O)CC1(C)C (relative stereo) [Compound 12, 3-(cis-4-Hydroxy-2,2-dimethyl-1,2,3,4-tetrahydro-naphthalen-r-1-yl)-3H-imidazole-4-carboxylic acid methyl ester] | 14 nM | – | –
20 | spiro[cyclopentane-1,2′-[3′-(7′-methyl-chroman-4′-yl)-3′H-imidazole-4′-carboxylic acid methyl ester]] [Compound 17] | 175 nM | – | 100%

— patent US8436035B2, “Organic compounds” (Novartis AG, priority 2006, dated 2013)
